Experimental data taken from patent US20260138949A1, “NOVEL COMPOUND AS PHOSPHOLIPASE D INHIBITOR AND USE THEREOF” (UIF (UNIVERSITY INDUSTRY FOUNDATION), YONSEI UNIVERSITY, priority 2022, published 2026).

Legend:
Format in all cases: cell-based
[1] = system: normal colon epithelial cells (FHC); experiment: Cell cycle analysis (BrdU/7-AAD flow cytometry) in normal cells; conditions: 5-FU 10 μM, 48 hours
Procedure: (§1) To observe cell cycle changes, normal colon epithelial cells (FHC) and human colon cancer cell line DLD1 were treated with compound 1-91 at 2 μM and the positive control 5-FU at 10 μM. After 48 hours, the cells were washed with PBS, harvested, and sequentially treated with bromodeoxyuridine (BrdU) and 7-aminoactinomycin D (7-AAD). The cells were then stained with an anti-BrdU antibody conjugated with fluorescein isothiocyanate (FITC) and analyzed using a flow cytometer.

[2] = system: human colon cancer cell line DLD1; experiment: Cell cycle analysis (BrdU/7-AAD flow cytometry) in cancer cells; conditions: DLD1, 5-FU 10 μM, 48 hours
Procedure: as §1

[3] = system: normal colon epithelial cells (FHC); experiment: Apoptosis (annexin V-FITC) in normal cells; conditions: 5-FU 10 μM, 48 hours
Procedure: (§2) To observe changes in apoptosis, normal colon epithelial cells (FHC) and human colon cancer cell line (DLD1) were treated with compound 1-91 at 2 μM and the positive control 5-FU at 10 μM. After 48 hours, the cells were washed with PBS, harvested, and analyzed for apoptosis using an annexin V-FITC apoptosis detection kit.

[4] = system: human colon cancer cell line (DLD1); experiment: Apoptosis (annexin V-FITC) in cancer cells; conditions: DLD1, 5-FU 10 μM, 48 hours
Procedure: as §2

O=c1[nH]cc(F)c(=O)[nH]1 [Example 5-FU, reference compound]
cell cycle arrest, normal cells [1]: arrested the cell cycle at the G0/G1 phase in normal cells | cell cycle arrest, cancer cells [2]: at the Sub G1 phase in cancer cells | apoptosis, normal cells [3]: induced apoptosis in both normal and cancer cells | apoptosis, cancer cells [4]: induced apoptosis in both normal and cancer cells
